{"source": "ChEMBL document CHEMBL3045360", "about": "“Natural toxins for use in pest management” (2010)", "type_in_all_cases": "functional", "key": {"Planorbella trivolvis": {"test_system": "Planorbella trivolvis", "experiment": "Molluscicidal activity against Planorbella trivolvis"}, "Aedes aegypti [1]": {"test_system": "Aedes aegypti", "experiment": "Insecticidal activity against Aedes aegypti assessed as lethal compound dose per mosquito measured after 24 hr post topical application"}, "Aedes aegypti [2]": {"test_system": "Aedes aegypti", "experiment": "Insecticidal activity against Aedes aegypti assessed as insect mortality at 2 ppm"}, "Pomacea canaliculata [3]": {"test_system": "Pomacea canaliculata", "experiment": "Molluscicidal activity against Pomacea canaliculata assessed as mortality at 200 uM after 24 hr"}, "Pomacea canaliculata [4]": {"test_system": "Pomacea canaliculata", "experiment": "Molluscicidal activity against Pomacea canaliculata"}, "Pomacea canaliculata [5]": {"test_system": "Pomacea canaliculata", "experiment": "Molluscicidal activity against Pomacea canaliculata assessed as mortality at 75 uM after 24 hr"}}, "data": [{"compound": "C/C=C\\C#CC#C/C=C\\C(=O)OC", "note": "[(2Z,8Z)-MATRICARIA ACID METHYL ESTER]", "values": [{"measurement": "LC50", "setting": "Planorbella trivolvis", "result": 24, "unit": "µM"}]}, {"compound": "C=CCCCCCCCCC(=O)N1CCCCC1CC", "note": "(stereo unspecified) [2-ethyl-1-undec-10-enoyl-piperidine]", "values": [{"measurement": "LD50", "setting": "Aedes aegypti [1]", "result": 0.8, "unit": "µg"}]}, {"compound": "CC1(C)CC[C@]2(C(=O)O)CC[C@]3(C)C(=CC[C@@H]4[C@@]5(C)CC[C@H](O[C@@H]6O[C@H](CO)[C@@H](O)[C@H](O)[C@H]6O)[C@@](C)(CO)[C@@H]5CC[C@]43C)[C@@H]2C1", "note": "[Hederagenin-3-O-beta-D-glucopyranoside]", "values": [{"measurement": "LC50", "setting": "Planorbella trivolvis", "result": 30, "unit": "µM"}]}, {"compound": "O=C(/C=C/C=C/c1ccc2c(c1)OCO2)N1CCCCC1", "note": "[PIPERINE]", "values": [{"measurement": "LD50", "setting": "Aedes aegypti [1]", "result": 8.13, "unit": "µg"}]}, {"compound": "O=C(/C=C/C=C/CCCCCCc1ccc2c(c1)OCO2)N1CCCCC1", "values": [{"measurement": "mortality at 2 ppm", "setting": "Aedes aegypti [2]", "result": 20, "unit": "%"}]}, {"compound": "CC(C)NC(=O)/C=C/C=C/CCCCCCc1ccc2c(c1)OCO2", "values": [{"measurement": "mortality at 2 ppm", "setting": "Aedes aegypti [2]", "result": 80, "unit": "%"}]}, {"compound": "COC(=O)N(C(=O)N1CO[C@@]2(C(=O)OC)Cc3cc(Cl)ccc3C2=N1)c1ccc(OC(F)(F)F)cc1", "note": "[INDOXACARB]", "values": [{"measurement": "mortality at 2 ppm", "setting": "Aedes aegypti [2]", "result": 40, "unit": "%"}]}, {"compound": "CC1OC(C)OC(C)OC(C)O1", "note": "(stereo unspecified) [METALDEHYDE]", "values": [{"measurement": "mortality at 200 µM", "setting": "Pomacea canaliculata [3]", "result": 100, "unit": "%"}, {"measurement": "LC50", "setting": "Pomacea canaliculata [4]", "result": 30, "unit": "µM"}]}, {"compound": "CC1=CC(=O)C2C3C1C2(C)CCCC3(C)C", "note": "(stereo unspecified) [VULGARONE B]", "values": [{"measurement": "mortality at 75 µM", "setting": "Pomacea canaliculata [5]", "result": 100, "unit": "%"}, {"measurement": "LC50", "setting": "Pomacea canaliculata [4]", "result": 30, "unit": "µM"}]}]}
